Values joined by “and” are separate entries in the source; they are usually repeats but may differ in a detail not shown here. Equal values may be shown once.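 Values below derive from 48-hour exposures of cells grown in 96-well plates, with endpoints linearly interpolated between the two concentrations bracketing the appropriate inhibition level. Here, GI50 denotes the concentration required for 50% inhibition of growth. TGI: total growth inhibition.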
Tests used:
Test in all cases: NCI tumour cell line growth inhibition, 48 h
NCI-H23 lung = test system: NCI-H23 lung
U251 CNS = test system: U251 CNS
MALME-3M melanoma = test system: MALME-3M melanoma
NCI-H522 lung = test system: NCI-H522 lung
HCT-116 colon = test system: HCT-116 colon
CCRF-CEM leukemia = test system: CCRF-CEM leukemia
SW-620 colon = test system: SW-620 colon
MDA-N = test system: MDA-N
MOLT-4 leukemia = test system: MOLT-4 leukemia
BT-549 breast = test system: BT-549 breast
SR leukemia = test system: SR leukemia
T-47D breast = test system: T-47D breast
UACC-257 melanoma = test system: UACC-257 melanoma
SK-MEL-28 melanoma = test system: SK-MEL-28 melanoma
HOP-92 NSCLC = test system: HOP-92 NSCLC
TK-10 renal = test system: TK-10 renal
COLO 205 colon = test system: COLO 205 colon
SNB-75 CNS = test system: SNB-75 CNS
SNB-19 CNS = test system: SNB-19 CNS
M14 melanoma = test system: M14 melanoma
HCT-15 colon = test system: HCT-15 colon
MDA-MB-231 breast = test system: MDA-MB-231 breast
KM12 colon = test system: KM12 colon
NCI-H460 lung = test system: NCI-H460 lung
HS 578T breast = test system: HS 578T breast
HOP-62 NSCLC = test system: HOP-62 NSCLC
K-562 leukemia = test system: K-562 leukemia
A549 NSCLC = test system: A549 NSCLC
IGROV1 ovarian = test system: IGROV1 ovarian
A498 renal = test system: A498 renal
PC-3 prostate = test system: PC-3 prostate
RPMI-8226 leukemia = test system: RPMI-8226 leukemia
SF-268 CNS = test system: SF-268 CNS
KM20L2 colon = test system: KM20L2 colon
MDA-MB-435 = test system: MDA-MB-435
SK-MEL-5 melanoma = test system: SK-MEL-5 melanoma
786-0 renal = test system: 786-0 renal
LOX IMVI melanoma = test system: LOX IMVI melanoma
OVCAR-8 ovarian = test system: OVCAR-8 ovarian
UO-31 renal = test system: UO-31 renal
SF-295 CNS = test system: SF-295 CNS
XF 498 CNS = test system: XF 498 CNS
LXFL 529 NSCLC = test system: LXFL 529 NSCLC
SK-MEL-2 melanoma = test system: SK-MEL-2 melanoma
RXF 393 renal = test system: RXF 393 renal
DU-145 prostate = test system: DU-145 prostate
DMS 273 small cell lung = test system: DMS 273 small cell lung
OVCAR-4 ovarian = test system: OVCAR-4 ovarian
CAKI-1 renal = test system: CAKI-1 renal
UACC-62 melanoma = test system: UACC-62 melanoma
SN12C renal = test system: SN12C renal
MCF7 breast = test system: MCF7 breast
SNB-78 CNS = test system: SNB-78 CNS
HCC-2998 colon = test system: HCC-2998 colon
EKVX NSCLC = test system: EKVX NSCLC
SK-OV-3 ovarian = test system: SK-OV-3 ovarian
SF-539 CNS = test system: SF-539 CNS
NCI-H226 lung = test system: NCI-H226 lung
RXF-631 renal = test system: RXF-631 renal
HT29 colon = test system: HT29 colon
DLD-1 colon = test system: DLD-1 colon
OVCAR-5 ovarian = test system: OVCAR-5 ovarian
ACHN renal = test system: ACHN renal
OVCAR-3 ovarian = test system: OVCAR-3 ovarian
M19-MEL melanoma = test system: M19-MEL melanoma
DMS 114 small cell lung = test system: DMS 114 small cell lung
HL-60(TB) leukemia = test system: HL-60(TB) leukemia

O=[N+]([O-])c1cccc2nc3ccccc3c(NCCN(CCO)CCO)c12
TGI (NCI-H23 lung): 5.83 nM
TGI (U251 CNS): 26.1 nM
TGI (MALME-3M melanoma): 6.49 nM
TGI (NCI-H522 lung): 3.89 nM
TGI (HCT-116 colon): 31.1 nM
GI50 (CCRF-CEM leukemia): 15.6 nM
TGI (CCRF-CEM leukemia): 109 nM
TGI (SW-620 colon): 23.5 nM and 111 nM
TGI (MDA-N): 2.9 nM
GI50 (MOLT-4 leukemia): 4.13 nM
TGI (MOLT-4 leukemia): 90.3 nM
TGI (BT-549 breast): 8.75 nM
TGI (SR leukemia): 110 nM
TGI (T-47D breast): 114 nM
GI50 (UACC-257 melanoma): 49.8 nM
TGI (UACC-257 melanoma): 224 nM and 23.8 nM
GI50 (SK-MEL-28 melanoma): 10.3 nM
TGI (SK-MEL-28 melanoma): 27 nM and 23 nM
TGI (HOP-92 NSCLC): 17.1 nM
TGI (TK-10 renal): 138 nM
TGI (COLO 205 colon): 14.6 nM
TGI (SNB-75 CNS): 28.6 nM
TGI (SNB-19 CNS): 108 nM and 346 nM
TGI (M14 melanoma): 8.21 nM
TGI (HCT-15 colon): 66.8 nM and 169 nM
TGI (MDA-MB-231 breast): 9.7 nM
TGI (KM12 colon): 20.6 nM
TGI (NCI-H460 lung): 8.91 nM
TGI (HS 578T breast): 30.8 nM
TGI (HOP-62 NSCLC): 9.91 nM
GI50 (K-562 leukemia): 4.76 nM
TGI (K-562 leukemia): 28.3 nM
TGI (A549 NSCLC): 33.4 nM
TGI (IGROV1 ovarian): 26.5 nM
TGI (A498 renal): 11.6 nM
TGI (PC-3 prostate): 10.9 nM
TGI (RPMI-8226 leukemia): 97.1 nM
TGI (SF-268 CNS): 29.6 nM and 113 nM
TGI (KM20L2 colon): 69 nM and 29 nM
TGI (MDA-MB-435): 2.83 nM
TGI (SK-MEL-5 melanoma): 5.74 nM and 13 nM
TGI (786-0 renal): 29.6 nM
GI50 (LOX IMVI melanoma): 11.8 nM
TGI (LOX IMVI melanoma): 31.9 nM and 33.1 nM
TGI (OVCAR-8 ovarian): 23.1 nM and 16.6 nM
GI50 (UO-31 renal): 257 nM
TGI (SF-295 CNS): 54.9 nM and 17 nM
TGI (XF 498 CNS): 24 nM
TGI (LXFL 529 NSCLC): 108 nM and 24.3 nM
TGI (SK-MEL-2 melanoma): 10.2 nM
TGI (RXF 393 renal): 4.47 nM
TGI (DU-145 prostate): 10.8 nM
TGI (DMS 273 small cell lung): 42.2 nM and 24.6 nM
TGI (OVCAR-4 ovarian): 14.7 nM and 81.2 nM
TGI (CAKI-1 renal): 23.2 nM and 62.2 nM
TGI (UACC-62 melanoma): 11.4 nM
TGI (SN12C renal): 28.7 nM and 85.9 nM
TGI (MCF7 breast): 32.2 nM
TGI (SNB-78 CNS): 194 nM and 52.3 nM
TGI (HCC-2998 colon): 6.74 nM
GI50 (EKVX NSCLC): 12.8 nM
TGI (EKVX NSCLC): 41.1 nM and 52.4 nM
TGI (SK-OV-3 ovarian): 177 nM
GI50 (SF-539 CNS): 13.7 nM
TGI (SF-539 CNS): 26.6 nM and 59.4 nM
TGI (NCI-H226 lung): 4.1 nM and 19.3 nM
TGI (RXF-631 renal): 108 nM and 40.5 nM
TGI (HT29 colon): 20.2 nM
TGI (DLD-1 colon): 65.8 nM and 580 nM
TGI (OVCAR-5 ovarian): 23.4 nM
TGI (ACHN renal): 20.5 nM and 34.5 nM
TGI (OVCAR-3 ovarian): 14.4 nM

N#CCC(=O)N1CCCOCCC1
TGI (NCI-H23 lung): > 100000 nM
TGI (U251 CNS): > 100000 nM
TGI (M19-MEL melanoma): > 100000 nM
TGI (MALME-3M melanoma): > 100000 nM
TGI (HCT-116 colon): > 100000 nM
TGI (CCRF-CEM leukemia): > 100000 nM
TGI (SW-620 colon): 24300 nM
TGI (MOLT-4 leukemia): 7360 nM
TGI (UACC-257 melanoma): > 100000 nM
TGI (SK-MEL-28 melanoma): > 100000 nM
TGI (TK-10 renal): > 100000 nM
TGI (COLO 205 colon): 42200 nM
TGI (SNB-19 CNS): > 100000 nM
TGI (M14 melanoma): > 100000 nM
TGI (DMS 114 small cell lung): > 100000 nM
TGI (HCT-15 colon): 37700 nM
TGI (KM12 colon): > 100000 nM
TGI (NCI-H460 lung): > 100000 nM
TGI (HOP-62 NSCLC): > 100000 nM
TGI (K-562 leukemia): > 100000 nM
TGI (A549 NSCLC): > 100000 nM
TGI (IGROV1 ovarian): > 100000 nM
TGI (A498 renal): > 100000 nM
TGI (SF-268 CNS): > 100000 nM
TGI (HL-60(TB) leukemia): > 100000 nM
TGI (KM20L2 colon): > 100000 nM
TGI (SK-MEL-5 melanoma): > 100000 nM
TGI (786-0 renal): > 100000 nM
TGI (LOX IMVI melanoma): > 100000 nM
TGI (UO-31 renal): > 100000 nM
TGI (SF-295 CNS): > 100000 nM
TGI (LXFL 529 NSCLC): > 100000 nM
TGI (SK-MEL-2 melanoma): > 100000 nM
TGI (RXF 393 renal): > 100000 nM
TGI (DMS 273 small cell lung): > 100000 nM
TGI (OVCAR-4 ovarian): > 100000 nM
TGI (CAKI-1 renal): > 100000 nM
TGI (UACC-62 melanoma): > 100000 nM
TGI (SN12C renal): > 100000 nM
TGI (SNB-78 CNS): > 100000 nM
TGI (HCC-2998 colon): > 100000 nM
TGI (EKVX NSCLC): > 100000 nM
TGI (SK-OV-3 ovarian): > 100000 nM
TGI (SF-539 CNS): > 100000 nM
TGI (RXF-631 renal): > 100000 nM
TGI (HT29 colon): > 100000 nM
TGI (DLD-1 colon): > 100000 nM
TGI (OVCAR-5 ovarian): > 100000 nM
TGI (ACHN renal): > 100000 nM
